According to article PMC6364417, “Kinase inhibitor library screening identifies synergistic drug combinations effective in sensitive and resistant melanoma cells” (Journal of Experimental & Clinical Cancer Research : CR, 2019):

Experiments:
Experiment in all cases: Kinase inhibitor library screening, PrestoBlue cell viability, 1 or 10 μM, 72 h
[1] = test system: 501Mel-XP cells (Vemurafenib-resistant); details: 72 h
[2] = test system: A375-GP cells (Dabrafenib-resistant)
[3] = test system: 501Mel-GP cells (Dabrafenib-resistant); details: 72 h
[4] = test system: IGR37 cells (parental)
[5] = test system: A375-XP cells (Vemurafenib-resistant)
[6] = test system: A375 cells (parental)
[7] = test system: 501Mel cells (parental); details: 72 h
Summary of the method: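 Parental cells and Vemurafenib-resistant (XP) or Dabrafenib-resistant (GP) derivatives were treated with library kinase inhibitors at 1 and 10 μM for 72 h. Viability measured by PrestoBlue and expressed as % of untreated cells, at least in duplicate.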

[8] = test system: IGR37-GP cells (Dabrafenib-resistant)
[9] = test system: IGR37-XP cells (Vemurafenib-resistant)

CC1(COc2ccc3c(c2)ncn3-c2ccc3cccc(N4CCC(N)CC4)c3n2)COC1 [Crenolanib (CP-868596)]
Cell viability in kinase inhibitor library screening, 501Mel XP, 10μΜ ([1]; 501Mel XP, 10μΜ, in %): 0.1 | Cell viability in kinase inhibitor library screening, A375 GP, 10μΜ ([2]; A375 GP, 10μΜ, 72 h): 66.5 | Cell viability in kinase inhibitor library screening, 501Mel GP, 1μΜ ([3]; 501Mel GP, 1μΜ, in %): 108.6 | Cell viability in kinase inhibitor library screening, 501Mel GP, 10μΜ ([3]; 501Mel GP, 10μΜ, in %): 51.0 | Cell viability in kinase inhibitor library screening, IGR37 Parental, 1μΜ ([4]; IGR37 Parental, 1μΜ, 72 h, in %): 103.4 | Cell viability in kinase inhibitor library screening, IGR37 Parental, 10μΜ ([4]; IGR37 Parental, 10μΜ, 72 h, in %): 89.7 | Cell viability in kinase inhibitor library screening, A375 XP, 1μΜ ([5]; A375 XP, 1μΜ, 72 h): 108.4 | Cell viability in kinase inhibitor library screening, A375 XP, 10μΜ ([5]; A375 XP, 10μΜ, 72 h): 78.4 | Cell viability in kinase inhibitor library screening, A375 Parental, 10μΜ ([6]; A375 Parental, 10μΜ, 72 h): 69.9 | Cell viability in kinase inhibitor library screening, A375 Parental, 1μΜ ([6]; A375 Parental, 1μΜ, 72 h): 109.2 | Cell viability in kinase inhibitor library screening, 501Mel Parental, 1μΜ ([7]; 501Mel Parental, 1μΜ, in %): 112.4 | Cell viability in kinase inhibitor library screening, 501Mel Parental, 10μΜ ([7]; 501Mel Parental, 10μΜ, in %): 12.0 | Cell viability in kinase inhibitor library screening, IGR37 GP, 10μΜ ([8]; IGR37 GP, 10μΜ, 72 h): 84.5% | Cell viability in kinase inhibitor library screening, IGR37 GP, 1μΜ ([8]; IGR37 GP, 1μΜ, 72 h, in %): 104.5 | Cell viability in kinase inhibitor library screening, IGR37 XP, 10μΜ ([9]; IGR37 XP, 10μΜ, 72 h): 30.9%

C[C@@H](Oc1cc(-c2cnn(C3CCNCC3)c2)cnc1N)c1c(Cl)ccc(F)c1Cl [Crizotinib (PF-02341066)]
cell viability (kinase inhibitor library screening) ([1]; 501Mel XP, 1μΜ): 62.4% | cell viability (kinase inhibitor library screening) ([1]; 501Mel XP, 10μΜ): -0.46% | cell viability (kinase inhibitor library screening) ([2]; A375 GP, 1μΜ, 72 h): 94.9% | cell viability (kinase inhibitor library screening) ([2]; A375 GP, 10μΜ, 72 h): 14.4% | cell viability (kinase inhibitor library screening) ([3]; 501Mel GP, 1μΜ): 80.0% | cell viability (kinase inhibitor library screening) ([3]; 501Mel GP, 10μΜ): -0.355% | cell viability (kinase inhibitor library screening) ([4]; IGR37 Parental, 1μΜ, 72 h): 93.8% | cell viability (kinase inhibitor library screening) ([4]; IGR37 Parental, 10μΜ, 72 h): 8.1% | cell viability (kinase inhibitor library screening) ([5]; A375 XP, 1μΜ, 72 h): 99.3% | cell viability (kinase inhibitor library screening) ([5]; A375 XP, 10μΜ, 72 h): 17.2% | cell viability (kinase inhibitor library screening) ([6]; A375 Parental, 10μΜ, 72 h): 20.5% | cell viability (kinase inhibitor library screening) ([6]; A375 Parental, 1μΜ, 72 h): 98.4% | cell viability (kinase inhibitor library screening) ([7]; 501Mel Parental, 1μΜ): 97.3% | cell viability (kinase inhibitor library screening) ([7]; 501Mel Parental, 10μΜ): 0.235% | cell viability (kinase inhibitor library screening) ([8]; IGR37 GP, 1μΜ, 72 h): 97.3% | cell viability (kinase inhibitor library screening) ([8]; IGR37 GP, 10μΜ, 72 h): 6.1% | cell viability (kinase inhibitor library screening) ([9]; IGR37 XP, 1μΜ, 72 h): 100.4% | cell viability (kinase inhibitor library screening) ([9]; IGR37 XP, 10μΜ, 72 h): 1.5%

N#CCNC(=O)c1ccc(-c2ccnc(Nc3ccc(N4CCOCC4)cc3)n2)cc1 [Cyt387]
viability at 1 µM ([1]; Homo sapiens, read-out: cell viability, 501Mel XP, 1μΜ): 115% | viability at 10 µM ([1]; Homo sapiens, read-out: cell viability, 501Mel XP, 10μΜ): 35.8% | viability at 1 µM ([2]; Homo sapiens, A-375, 72 h, read-out: cell viability, A375 GP, 1μΜ): 94.4% | viability at 10 µM ([2]; Homo sapiens, A-375, 72 h, read-out: cell viability, A375 GP, 10μΜ): 43.9% | viability at 1 µM ([3]; Homo sapiens, read-out: cell viability, 501Mel GP, 1μΜ): 105% | viability at 10 µM ([3]; Homo sapiens, read-out: cell viability, 501Mel GP, 10μΜ): 50.6% | viability at 1 µM ([4]; Homo sapiens, IGR-37, 72 h, read-out: cell viability, IGR37 Parental, 1μΜ): 103% | viability at 10 µM ([4]; Homo sapiens, IGR-37, 72 h, read-out: cell viability, IGR37 Parental, 10μΜ): 86.1% | viability at 1 µM ([5]; Homo sapiens, A-375, 72 h, read-out: cell viability, A375 XP, 1μΜ): 95.8% | viability at 10 µM ([5]; Homo sapiens, A-375, 72 h, read-out: cell viability, A375 XP, 10μΜ): 64.7% | viability at 1 µM ([6]; Homo sapiens, A-375, 72 h, read-out: cell viability, A375 Parental, 1μΜ): 99.6% | viability at 10 µM ([6]; Homo sapiens, A-375, 72 h, read-out: cell viability, A375 Parental, 10μΜ): 48.4% | viability at 1 µM ([7]; Homo sapiens, read-out: cell viability, 501Mel Parental, 1μΜ): 101% | viability at 10 µM ([7]; Homo sapiens, read-out: cell viability, 501Mel Parental, 10μΜ): 60.8% | viability at 1 µM ([8]; Homo sapiens, IGR-37, 72 h, read-out: cell viability, IGR37 GP, 1μΜ): 94.2% | viability at 10 µM ([8]; Homo sapiens, IGR-37, 72 h, read-out: cell viability, IGR37 GP, 10μΜ): 25.5% | viability at 1 µM ([9]; Homo sapiens, IGR-37, 72 h, read-out: cell viability, IGR37 XP, 1μΜ): 106% | viability at 10 µM ([9]; Homo sapiens, IGR-37, 72 h, read-out: cell viability, IGR37 XP, 10μΜ): 11.7%
